These results are taken from patent publication US9650395B2, “Antibacterial compounds and methods for use” (PTC Therapeutics, Inc., priority 2011, dated 2017).

Assay [1] deals with various organisms. Put plainly: Microdilution checkerboard method, combination with ciprofloxacin (MIC and FIC). Type of assay: cell-based. The note with it: single agent. (In broth dilution the organism is exposed to a series of concentrations in liquid medium.)
For assay [2], the system named is control Gram-negative E. coli 25922 strain. Put plainly: Antibacterial activity, microbroth dilution MIC, E. coli 25922. Type of assay: cell-based, Escherichia coli. As to conditions: Escherichia coli; E. coli 25922, microbroth dilution; read-out: MIC, 25922.
The subject of assay [3] is Acinetobacter baumannii (A. baumannii) BAA747. Put plainly: Antibacterial activity, MIC, A. baumannii BAA747. As to conditions: Acinetobacter baumannii; A. baumannii BAA747; read-out: MIC BAA747. It counts as cell-based.
For assay [4], the system named is Moraxella catarrhalis (M. catarrhalis) 25238. Put plainly: Antibacterial activity, MIC, M. catarrhalis 25238. Type of assay: cell-based. As to conditions: M. catarrhalis 25238; hydrochloride.
The subject of assay [5] is super sensitive Gram-negative Escherichia coli (E. coli) BAS849. Put plainly: Antibacterial activity, microbroth dilution MIC, E. coli BAS849. It counts as cell-based. As to conditions: Escherichia coli; E. coli BAS849, microbroth dilution; read-out: MIC, BAS849.
Assay [6] has as its system resistant K. pneumoniae MXX1232 (MDR clinical isolate). Put plainly: Antibacterial activity, MIC, resistant K. pneumoniae MXX1232. It counts as cell-based, Klebsiella pneumoniae. The note with it: Klebsiella pneumoniae; resistant K. pneumoniae MMX1232, MDR clinical isolate; read-out: MIC MMX1232.
Assay [7] deals with Gram-positive Staphylococcus aureus (S. aureus) 29213. Put plainly: Antibacterial activity, microbroth dilution MIC, S. aureus 29213. It counts as cell-based. The note with it: Staphylococcus aureus; S. aureus 29213, microbroth dilution; read-out: MIC, 29213.
The subject of assay [8] is Pseudomonas aeruginosa (P. aeruginosa) 27853. Put plainly: Antibacterial activity, MIC, P. aeruginosa 27853. It counts as cell-based. As to conditions: P. aeruginosa 27853; hydrochloride. An excerpt:
(§1) The antibacterial activity from a microbroth dilution method may be presented as the minimum inhibitory concentration (MIC in […]). The MIC value is the lowest concentration of a drug which prevents macroscopically visible bacterial growth under test conditions.
Antibacterial activity of test compounds against the Gram-negative bacterium Pseudomonas aeruginosa (P. aeruginosa) 27853 is shown in Table 5.

Assay [9] deals with quinolone resistant E. coli LZ3111. Put plainly: Antibacterial activity, MIC, quinolone resistant E. coli LZ3111. Type of assay: cell-based, Escherichia coli. As to conditions: Escherichia coli, read-out: MIC, LZ3111.
Excerpt: as §1
Mutations in these regions are known to confer a high level resistance to the quinolone class of antibiotics.

Assay [10] deals with E. coli ELZ4251 (MDR clinical isolate). Put plainly: Antibacterial activity, MIC, MDR E. coli ELZ4251. It counts as cell-based, Escherichia coli. The note with it: E. coli ELZ4251, MDR clinical isolate; hydrochloride.
Assay [11] deals with Klebsiella pneumoniae (K. pneumoniae) 35657. Put plainly: Antibacterial activity, MIC, K. pneumoniae 35657. As to conditions: Klebsiella pneumoniae. Type of assay: cell-based.
Assay [12] deals with resistant A. baumannii MXX2240 (MDR clinical isolate). Put plainly: Antibacterial activity, MIC, resistant A. baumannii MXX2240. It counts as cell-based, Acinetobacter baumannii. The note with it: resistant A. baumannii MMX2240, MDR clinical isolate; hydrochloride.
The mark [13] stands for this setting: Acinetobacter baumannii, A. baumannii (MDR).
Where [14] appears, read: Acinetobacter baumannii, BAA747, A. baumannii BAA747.
[15] abbreviates: Escherichia coli, E. coli 25922.
The mark [16] stands for this setting: Klebsiella pneumoniae, K. pneumoniae 35657.
Where [17] appears, read: Pseudomonas aeruginosa, P. aeruginosa 27853.
Where [18] appears, read: Staphylococcus aureus, S. aureus 29213.
The mark [19] stands for this setting: Staphylococcus aureus, S. aureus (MDR).

In general, MIC refers to the least concentration at which growth counts as inhibited.

Where a name gives a salt, the structure may show the parent alone.

Consider `O=C(O)c1cn(C2CC2)c2cc(N3CCNCC3)c(F)cc2c1=O` [Cipro, ciprofloxacin, reference compound], for which the MIC in assay [1] (setting [13]) was 125 µg/mL; in [1] (setting [14]) it was 0.098 µg/mL; in [1] (Escherichia coli, E. coli 3111), 125 µg/mL; in assay [1] (setting [15]) it was 0.013 µg/mL; in assay [1] (setting [16]) it was 0.01 µg/mL; in [1] (setting [17]), 0.2 µg/mL. Besides, the minimal inhibitory concentration (MIC) in [1] (setting [18]) came out at 0.39 µg/mL; in [1] (setting [19]), 31.2 µg/mL.
Consider `CCc1c(-c2ccc(N3C[C@@H]4[C@@H](N)[C@@H]4C3)cc2)[nH]c(=O)c(C(=O)O)c1O` [Cpd 269, 6-{4-[(1R,5S,6s)-6-amino-3-azabicyclo[3.1.0]hex-3-yl]phenyl}-5-ethyl-4-hydroxy-2-oxo-1,2-dihydropyridine-3-carboxylic acid hydrochloride], for which the MIC is < 1 µg/mL in assay [2]; < 1 µg/mL in assay [3]; 12.5 µg/mL in [1] (setting [13]); 0.39 µg/mL in assay [1] (setting [14]); 3.1 µg/mL in assay [1] (Escherichia coli, E. coli 3111); 0.19 µg/mL in assay [1] (setting [15]). The minimum inhibitory concentration (MIC) in assay [1] (setting [16]) is 0.39 µg/mL; in assay [1] (setting [17]), 1.6 µg/mL; in [1] (setting [18]) it was 3.12 µg/mL; in [1] (setting [19]) it was 6.2 µg/mL; in assay [5] it was < 1 µg/mL; in assay [6], 12.5 to 150 µg/mL. Besides, the minimum inhibitory concentration (MIC) in [7] is 3.5 to 12.5 µg/mL; in assay [9], 3.5 to 12.5 µg/mL; in assay [11] it was < 1 µg/mL. For the same compound, the “MIC 25238” value in assay [4] is listed as “**** (an MIC value of ≦1.0 μg/mL is indicated by four stars (****))”. Also, the “MIC 27853” value in assay [8] was “*** (an MIC value between >1.0 μg/mL and ≦3.5 μg/mL is indicated by three stars (***))”. Also, the “MIC ELZ4251” value in [10] was “* (an MIC value between >12.5 μg/mL and ≦150 μg/mL is indicated by a single star (*))”. Moreover, the “MIC MMX2240” value in [12] was “** (an MIC value between >3.5 μg/mL and ≦12.5 μg/mL is indicated by two stars (**))”.
